Assay results from patent US20060134131A1, “Cosmetic or pharmaceutical composition comprising a genus halopteris brown alga extract” (priority 2002, published 2006).
Where two headings read alike, the source gives them in different places.

Tested on: pre-adipocytes 3T3-L1
Assay: Differentiation of 3T3-L1 pre-adipocytes into adipocytes, lipid content by Oil Red colouring
Format: cell-based
Settings: Mus musculus, 3T3-L1, retinoic acid 10 μM
Method: The study on the effect of this extract on a line of pre-adipocytes ET3-L1 induced as adipocytes is carried out according to a protocol which is known and which is in particular described in the document which appeared in Annu. Rev. Biochem., 1995, 64: 345-373, entitled “Transcriptional regulation of gene expression during adipocyte differentiation”, the authors of which were MacDougald O A and Lane M D.
This protocol is set out briefly below. The pre-adipocyte cells of the line e=3T3-L1 were kept in culture in a Dulbelcco modified Eagle medium (DMEM) containing 2 mM of glutamine, 4.5 g/l of glucose, 0.11 g/l of sodium pyruvate, 10% of calf serum (SVD) and antibiotics (50 U penicillin and 50 μg of streptomycin per ml of medium). Their differentiation as adipocytes was brought about in the following manner: firstly, the pre-adipocyte cells were cultivated with confluence for two days. At the time which will be referred to below as D0, the culture medium was replaced by a differentiation inducing medium (DIM) composed of DMEM containing 10% foetal calf serum (FCS) with the addition of 0.25 mM of isobutyl methyl xanthine (IBMX), 0.25 μM of dexamethasone and 1.74 μM of insulin. After two days of incubation, and therefore at time D2, the induction medium was delicately withdrawn and replaced by a new culture medium containing 10% of FCS and 0.174 μM of insulin. Next the culture medium was renewed every two days.
After seven days of culture, the lipid content of the pre-adipocyte cells was assessed by colouring with Oil Red. More precisely, the pre-adipocyte cells were fixed to 3.7% formaldehyde and then incubated for ten minutes with a Oil Red colorant solution (0.5% in an isopropanol/water mixture). After 10 minutes, the cellular carpet was rinsed with water and the pre-adipocyte cells were lysed with pure isopropanol. The optical density (OD) of the medium was measured at 540 nm.
The extract of the brown alga Halopteris scoparia was tested on 3T3-L1 cells during the induction phase by means of the DIM, which therefore commenced at day D0.
In the first experimental series, this extract was added from the very start of the differentiation (at time D0) and kept present in the medium until the cells were fixed (at time D7), by renewal every two days (that is to say at time D2 and D4). The extract was tested at the following three concentrations: 0.4%, 1% and 2.5%. In the same way, use was made of a sample of 10 μM retinoic acid, which is known for inhibiting the differentiation of pre-adipocytes into adipocytes, as is in particular described in the article which appeared in Differentiation, 1990, 45:119-127, entitled “The molecular basis for inhibition of adipose conversion of 3T3-L1 cells by retinoic acid”, the authors of which were Stone R L and Berlnohr D A. […]

Q: What does the source list for `CC1=C(/C=C/C(C)=C/C=C/C(C)=C/C(=O)O)C(C)(C)CCC1` [Retinoic Acid, retinoic acid]?
A: inhibition at 10 µM (first experimental series, five manipulations, read-out: % inhibition of the differentiation): 82 ± 21%; inhibition at 10 µM (presence from D0 to D2, read-out: % inhibition of differentiation): 40 ± 5%; inhibition at 10 µM (presence from D0 to D7, second series, read-out: % inhibition of differentiation): 51 ± 3%; inhibition at 10 µM (presence from D2 to D7, read-out: % inhibition of differentiation): 3 ± 2%
